Data reported in US20220226337A1 (Gilead Sciences, Inc., priority 2018, published 2022).

molecular target: T1, α4β7 integrin interaction with MadCAM-1 (RPMI8866 cells) (Homo sapiens, UniProt P13612+P26010); assay: α4β7 Integrin Cell Capture Assay; assay type: cell-based; settings: capture of α4β7 integrin expressing RPMI8866 cells on recombinant MadCAM-1 extracellular domain-coated plate; 0.5 mM MnCl2
T1 construct: α4β7 integrin expressing cells; endogenous in cells; host or cells: RPMI8866 cells
T1 sequence (P13612 34-1032): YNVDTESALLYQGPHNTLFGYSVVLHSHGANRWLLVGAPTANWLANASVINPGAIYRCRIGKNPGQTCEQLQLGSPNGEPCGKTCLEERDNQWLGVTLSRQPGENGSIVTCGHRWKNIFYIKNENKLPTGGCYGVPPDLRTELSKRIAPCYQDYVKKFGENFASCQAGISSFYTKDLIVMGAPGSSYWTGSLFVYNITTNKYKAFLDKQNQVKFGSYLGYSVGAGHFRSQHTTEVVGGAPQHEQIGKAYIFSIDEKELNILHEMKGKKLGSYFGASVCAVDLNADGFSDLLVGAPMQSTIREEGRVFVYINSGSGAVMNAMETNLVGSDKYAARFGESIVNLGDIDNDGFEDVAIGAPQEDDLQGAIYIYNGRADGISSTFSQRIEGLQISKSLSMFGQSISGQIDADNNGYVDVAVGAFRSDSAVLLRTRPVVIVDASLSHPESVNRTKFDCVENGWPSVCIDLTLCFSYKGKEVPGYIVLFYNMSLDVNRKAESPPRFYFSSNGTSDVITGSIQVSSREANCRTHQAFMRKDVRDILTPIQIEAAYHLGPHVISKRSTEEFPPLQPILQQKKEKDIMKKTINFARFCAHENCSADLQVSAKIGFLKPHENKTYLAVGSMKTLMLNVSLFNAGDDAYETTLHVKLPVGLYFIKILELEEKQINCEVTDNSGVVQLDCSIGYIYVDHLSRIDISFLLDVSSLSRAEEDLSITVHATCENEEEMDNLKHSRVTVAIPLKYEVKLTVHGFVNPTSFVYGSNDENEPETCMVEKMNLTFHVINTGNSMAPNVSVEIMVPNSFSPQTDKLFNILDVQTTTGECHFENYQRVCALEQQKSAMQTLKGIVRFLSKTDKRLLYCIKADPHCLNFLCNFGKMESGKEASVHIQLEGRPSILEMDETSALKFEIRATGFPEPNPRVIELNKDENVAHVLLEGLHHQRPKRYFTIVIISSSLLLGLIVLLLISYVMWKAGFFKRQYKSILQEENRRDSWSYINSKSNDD
T1 sequence (P26010 20-798): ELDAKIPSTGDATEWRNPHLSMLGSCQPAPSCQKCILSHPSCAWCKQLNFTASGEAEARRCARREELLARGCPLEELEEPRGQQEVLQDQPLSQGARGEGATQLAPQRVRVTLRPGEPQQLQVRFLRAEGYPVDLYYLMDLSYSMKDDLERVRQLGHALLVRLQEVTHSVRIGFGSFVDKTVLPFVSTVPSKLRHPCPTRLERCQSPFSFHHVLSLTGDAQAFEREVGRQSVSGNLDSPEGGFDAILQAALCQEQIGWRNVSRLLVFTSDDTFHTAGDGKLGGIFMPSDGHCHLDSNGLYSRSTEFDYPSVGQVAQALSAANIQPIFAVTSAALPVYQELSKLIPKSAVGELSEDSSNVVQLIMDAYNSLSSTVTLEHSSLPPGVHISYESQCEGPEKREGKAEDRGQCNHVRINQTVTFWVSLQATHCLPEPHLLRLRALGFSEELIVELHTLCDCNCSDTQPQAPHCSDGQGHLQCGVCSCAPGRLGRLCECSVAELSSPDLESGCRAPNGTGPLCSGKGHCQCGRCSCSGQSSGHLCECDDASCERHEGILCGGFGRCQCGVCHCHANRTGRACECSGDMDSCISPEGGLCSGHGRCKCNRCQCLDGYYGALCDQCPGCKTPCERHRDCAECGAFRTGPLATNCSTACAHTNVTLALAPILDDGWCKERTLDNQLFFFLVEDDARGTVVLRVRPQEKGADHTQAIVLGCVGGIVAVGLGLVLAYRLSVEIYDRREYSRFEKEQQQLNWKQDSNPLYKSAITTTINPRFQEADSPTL
Method: The potency of inhibitors in preventing α4β7 integrin interaction with MadCAM-1 was measured by monitoring the capture of α4β7 integrin expressing cells on a recombinant MadCAM-1 extracellular domain-coated plate. 384-well plates (Corning 3702) were coated with MadCAM-1 extracellular domain by dispensing 20 μL of MAdCAM-1 at 1.0 μg/mL per well and incubating overnight at 4° C. The plates were then washed with PBS and blocked with 3% BSA for 2 hours before being washed again. RPMI8866 cells were spun down and re-suspended in assay medium (DMEM+0.5% FBS+0.5 mM MnCl2) at a density of 0.5×10^6 cells/mL. The cells were then dispensed (60 μL/well) to a 384-well plate (Greiner 781280) that was previously spotted with 60 nL of test compound per well. The plates were incubated at 37° C. for 1 hour. 50 μL of cells were transferred to the blocked, MadCAM-1-coated plates and incubated for 30 minutes at 37° C. 10 μL of 12% glutaraldehyde containing Hoechst 33342 (0.06 mg/mL) was added to the cells (2% glutaraldehyde and 0.01 mg/mL final concentrations). The plates were incubated for 90 minutes at room temperature. The plates were then washed 3 times with 70 μL of PBS per well and imaged on a Cellomics ArrayScan instrument. The cells that were bound to the plate were counted and plotted against the compound concentration to determine the EC50 of the test compounds.

Compound | EC50
Cc1c(-c2ccc(C[C@H](NC(=O)c3c(F)cccc3F)C(=O)O)c3c2CCOC3)c(=O)n(C)c2ccc(F)cc12 (single isomer, unassigned) [Example 36] | 24.8 nM
Cc1c(-c2ccc(C[C@H](NC(=O)c3c(F)cccc3F)C(=O)O)c3c2CCOC3)c(=O)n(C)c2ccc(F)cc12 (single isomer, unassigned) [Example 37] | 1.6 nM
Cc1cc(C(F)(F)F)c(-c2ccc(C[C@H](NC(=O)c3c(F)cc(N[C@H](C)C(F)(F)F)cc3F)C(=O)O)c3c2OCCC3)c(=O)n1C (single isomer, unassigned) [Example 42] | 1.42 nM
CC[C@@H](Nc1cc(F)c(C(=O)N[C@@H](Cc2ccc(-c3c(C(F)(F)F)cc(C)n(C)c3=O)c3c2CCCO3)C(=O)O)c(F)c1)C(F)(F)F (single isomer, unassigned) [Example 45] | 0.964 nM
Cc1c(-c2ccc(C[C@H](NC(=O)c3c(F)cccc3F)C(=O)O)c3c2OCCC3)c(=O)n(C)c2ccccc12 (single isomer, unassigned) [Example 58] | 2.56 nM
Cc1c(-c2ccc(C[C@H](NC(=O)c3c(F)cccc3F)C(=O)O)c3c2OCCC3)c(=O)n(C)c2ccccc12 (single isomer, unassigned) [Example 59] | 1.5 nM
Cc1c(-c2ccc(C[C@H](NC(=O)c3c(Cl)cccc3Cl)C(=O)O)c3c2OCCC3)c(=O)n(C)c2ccccc12 (single isomer, unassigned) [Example 61] | 2.29 nM
Cc1c(-c2ccc(C[C@H](NC(=O)c3c(Cl)cccc3Cl)C(=O)O)c3c2OCCC3)c(=O)n(C)c2ccccc12 (single isomer, unassigned) [Example 62] | 3.3 nM
O=C(N[C@@H](Cc1ccc(-c2c(Cl)cc(F)cc2Cl)c2c1[C@H]1C[C@H]1CO2)C(=O)O)c1c(F)cccc1F (single isomer, unassigned) [Example 78] | 120 nM
O=C(N[C@@H](Cc1ccc(-c2c(Cl)cc(F)cc2Cl)c2c1[C@@H]1C[C@@H]1CO2)C(=O)O)c1c(F)cccc1F (single isomer, unassigned) [Example 79] | 33.1 nM
O=C(N[C@@H](Cc1ccc(-c2c(Cl)cc(F)cc2Cl)c2c1[C@H]1C[C@H]1CO2)C(=O)O)c1c(Cl)cccc1Cl (single isomer, unassigned) [Example 81] | 109 nM
O=C(N[C@@H](Cc1ccc(-c2c(Cl)cc(F)cc2Cl)c2c1[C@@H]1C[C@@H]1CO2)C(=O)O)c1c(Cl)cccc1Cl (single isomer, unassigned) [Example 82] | 42 nM
Cn1c(=O)c(-c2ccc(C[C@H](NC(=O)c3c(F)cccc3F)C(=O)O)c3c2OCCO3)cc2ccccc21 [Example 1, (S)-2-(2,6-difluorobenzamido)-3-(8-(1-methyl-2-oxo-1,2-dihydroquinolin-3-yl)-2,3-dihydrobenzo[b][1,4]dioxin-5-yl)propanoic acid] | 11 nM

The remaining lines, values ahead:

EC50 | Compound
0.203 nM | Cc1nc(C)n(C)c(=O)c1-c1ccc(C[C@H](NC(=O)c2c(F)cc(N3CCOC[C@@H]3C(F)(F)F)cc2F)C(=O)O)c2c1OCCC2 (atropisomer, axis not shown) [Example 117]
0.142 nM | Cc1nc(C)n(C)c(=O)c1-c1ccc(C[C@H](NC(=O)c2c(F)cc(N3CCOC[C@@H]3C(F)(F)F)cc2F)C(=O)O)c2c1OCCC2 (atropisomer, axis not shown) [Example 118]
0.089 nM | Cc1cc(N2CCOC[C@@H]2C(F)(F)F)cc(F)c1C(=O)N[C@@H](Cc1ccc(-c2c(C)nc(C)n(C)c2=O)c2c1CCCO2)C(=O)O (atropisomer, axis not shown) [Example 119]
0.089 nM | Cc1cc(N2CCOC[C@@H]2C(F)(F)F)cc(F)c1C(=O)N[C@@H](Cc1ccc(-c2c(C)nc(C)n(C)c2=O)c2c1CCCO2)C(=O)O (atropisomer, axis not shown) [Example 120]
0.089 nM | Cc1cc(N2CCOC[C@@H]2C(F)(F)F)cc(F)c1C(=O)N[C@@H](Cc1ccc(-c2c(Cl)cc(C)n(C)c2=O)c2c1CCCO2)C(=O)O (atropisomer, axis not shown) [Example 137]
0.791 nM | Cc1cc(N2CCC2)c(-c2ccc(C[C@H](NC(=O)c3c(F)cc(N4CCOC[C@@H]4C(F)(F)F)cc3F)C(=O)O)c3c2OCCC3)c(=O)n1C (atropisomer, axis not shown) [Example 152]
0.551 nM | Cc1cc(N2CCC2)c(-c2ccc(C[C@H](NC(=O)c3c(F)cc(N4CCOC[C@@H]4C(F)(F)F)cc3F)C(=O)O)c3c2OCCC3)c(=O)n1C (atropisomer, axis not shown) [Example 153]
0.301 nM | Cc1c(-c2ccc(C[C@H](NC(=O)c3c(F)cc(N4CCOC[C@@H]4C(F)(F)F)cc3F)C(=O)O)c3c2OCCO3)c(=O)n(C)c(=O)n1C (single isomer, unassigned) [Example 8]
0.431 nM | Cc1c(-c2ccc(C[C@H](NC(=O)c3c(F)cc(N4CCOC[C@@H]4C(F)(F)F)cc3F)C(=O)O)c3c2OCCO3)c(=O)n(C)c(=O)n1C (single isomer, unassigned) [Example 9]
0.126 nM | Cc1cc(C(F)(F)F)c(-c2ccc(C[C@H](NC(=O)c3c(F)cc(N4CCOC[C@@H]4C(F)(F)F)cc3F)C(=O)O)c3c2OCCC3)c(=O)n1C (single isomer, unassigned) [Example 39]
0.889 nM | Cc1cc(C(F)(F)F)c(-c2ccc(C[C@H](NC(=O)c3c(F)cc(N4CCOC[C@@H]4C(F)(F)F)cc3F)C(=O)O)c3c2OCCC3)c(=O)n1C (single isomer, unassigned) [Example 40]
0.594 nM | Cc1cc(C(F)(F)F)c(-c2ccc(C[C@H](NC(=O)c3c(F)cc(N[C@H](C)C(F)(F)F)cc3F)C(=O)O)c3c2OCCC3)c(=O)n1C (single isomer, unassigned) [Example 41]
0.29 nM | CC[C@@H](Nc1cc(F)c(C(=O)N[C@@H](Cc2ccc(-c3c(C(F)(F)F)cc(C)n(C)c3=O)c3c2CCCO3)C(=O)O)c(F)c1)C(F)(F)F (single isomer, unassigned) [Example 44]
0.152 nM | CC[C@@H](Nc1cc(F)c(C(=O)N[C@@H](Cc2ccc(-c3c(C)n(C)c(=O)n(C)c3=O)c3c2CCCO3)C(=O)O)c(F)c1)C(F)(F)F (single isomer, unassigned) [Example 55]
0.961 nM | CC[C@@H](Nc1cc(F)c(C(=O)N[C@@H](Cc2ccc(-c3c(C)n(C)c(=O)n(C)c3=O)c3c2CCCO3)C(=O)O)c(F)c1)C(F)(F)F (single isomer, unassigned) [Example 56]
